Laboratory results reported in paper PMC11943303 (International Journal of Molecular Sciences, 2025).
Entries after “also recorded” stand apart in the source; their conditions may differ. Read-outs that look alike come from different tables or passages of the source.

Columns and labels:
[1] = test system: transient outward potassium current, ITo, and its sustained component, IKsus; design: method as in PMID 18424641, PMID 12215493; conditions: cited from earlier work
[2] = test system: ultra-rapid potassium current; design: method as in PMID 23106642; conditions: rabbit left-atrium cardiomyocytes; cited from earlier work
heart = conditions: cited from earlier work
Text: (§1) Apelin is an endogenous peptide recognized for its therapeutic potential in hypertension and heart failure, as well as for its modulation of the endocrine system. This adipokine is primarily synthesized in adipose tissue but is also produced in the gastrointestinal tract, brain, kidney, lung, mammary glands, and cardiovascular system.

artery = conditions: by enhancing nitric oxide (NO) production in the endothelium; cited from earlier work
Text: as §1

[3] = test system: rabbit left-atrium cardiomyocytes; design: method as in PMID 23106642; conditions: cited from earlier work
[4] = test system: large conductance calcium-activated K^+ channels; conditions: cited from earlier work
[5] = test system: cardiac sodium current (INa); conditions: cited from earlier work
Text: At this stage, we cannot distinguish how specific affinities of Kv4.2 or Kv4.3 for 2Nal modulate the overall effect on ITo amplitude in native cardiomyocytes. However, our observation of apparent EC50 differing between the peak and sustained co ...

[6] = design: method as in PMID 10777510, PMID 18272843; conditions: isoforms identified in vivo; cited from earlier work
[7] = target: T1, transient outward potassium current, ITo (Rattus norvegicus, UniProt Q62897+Q63881); assay: ITo current block (dose-response, I/V), whole-cell patch clamp in rat cardiomyocytes; assay type: cell-based, rat (Sprague Dawley); conditions: 15 min pre-incubation, n = 32, 6 animals; for IC50: Hill equation fit to Gmax,[X]/Gmax,[ctrl], partial block
T1 construct: INa and ITo were recorded from freshly isolated left ventricular cardiomyocytes; endogenous in cells; host or cells: freshly isolated left ventricular cardiomyocytes of adult Sprague Dawley rats
T1 sequence (Q63881 1-630): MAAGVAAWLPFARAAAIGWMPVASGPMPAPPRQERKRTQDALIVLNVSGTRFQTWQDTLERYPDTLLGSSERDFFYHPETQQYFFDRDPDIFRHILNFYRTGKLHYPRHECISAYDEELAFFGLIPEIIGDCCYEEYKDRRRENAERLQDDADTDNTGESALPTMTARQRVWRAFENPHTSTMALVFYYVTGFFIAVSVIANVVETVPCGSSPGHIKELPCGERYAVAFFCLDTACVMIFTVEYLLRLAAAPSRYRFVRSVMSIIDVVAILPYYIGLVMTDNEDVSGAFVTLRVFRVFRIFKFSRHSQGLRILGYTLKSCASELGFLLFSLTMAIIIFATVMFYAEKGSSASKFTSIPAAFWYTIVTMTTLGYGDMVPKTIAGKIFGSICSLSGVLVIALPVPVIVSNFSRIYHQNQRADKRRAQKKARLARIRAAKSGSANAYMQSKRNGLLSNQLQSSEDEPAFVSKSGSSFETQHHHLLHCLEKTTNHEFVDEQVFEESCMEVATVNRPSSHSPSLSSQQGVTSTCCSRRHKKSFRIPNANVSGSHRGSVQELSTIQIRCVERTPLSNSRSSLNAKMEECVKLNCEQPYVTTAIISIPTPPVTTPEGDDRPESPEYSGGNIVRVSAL
T1 sequence (Q62897 1-655): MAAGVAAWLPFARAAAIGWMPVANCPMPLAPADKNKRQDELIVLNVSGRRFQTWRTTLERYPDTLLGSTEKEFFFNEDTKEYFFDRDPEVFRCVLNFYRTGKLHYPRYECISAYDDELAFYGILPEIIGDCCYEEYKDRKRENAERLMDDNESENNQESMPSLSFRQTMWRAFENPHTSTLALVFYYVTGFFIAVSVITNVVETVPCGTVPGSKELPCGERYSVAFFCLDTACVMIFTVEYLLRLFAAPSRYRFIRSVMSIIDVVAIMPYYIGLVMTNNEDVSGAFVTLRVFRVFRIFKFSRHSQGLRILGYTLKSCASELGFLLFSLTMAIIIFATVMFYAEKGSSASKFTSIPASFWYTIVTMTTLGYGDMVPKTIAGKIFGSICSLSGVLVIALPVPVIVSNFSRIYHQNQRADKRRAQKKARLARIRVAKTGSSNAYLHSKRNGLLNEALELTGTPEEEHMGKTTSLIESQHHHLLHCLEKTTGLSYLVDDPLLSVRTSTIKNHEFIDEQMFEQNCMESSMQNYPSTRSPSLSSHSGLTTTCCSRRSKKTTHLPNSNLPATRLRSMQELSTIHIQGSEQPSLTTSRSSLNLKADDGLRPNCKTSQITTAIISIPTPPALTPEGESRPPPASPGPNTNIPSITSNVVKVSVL
T1 sequence (Q9JM59 1-270 partner): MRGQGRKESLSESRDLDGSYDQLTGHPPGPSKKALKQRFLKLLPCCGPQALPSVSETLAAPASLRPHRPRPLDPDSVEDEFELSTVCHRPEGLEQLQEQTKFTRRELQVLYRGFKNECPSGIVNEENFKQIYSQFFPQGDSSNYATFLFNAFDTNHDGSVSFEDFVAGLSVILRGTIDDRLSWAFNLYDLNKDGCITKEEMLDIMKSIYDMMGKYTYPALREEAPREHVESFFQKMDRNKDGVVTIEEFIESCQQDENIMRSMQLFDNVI
Protocol: Ventricular cardiomyocytes from adult rats were isolated by enzymatic dissociation as previously reported. Adult Sprague Dawley rats (Charles River, Montreal, QC, Canada) were heparinized (5000 U) and sedated with 2% Isoflurane in an oxygen chamber (2 L/min). Hearts were excised by thoracotomy and cannulated via the aorta to be mounted on a Langendorff perfusion apparatus. Hearts were initially perfused with standard calcium-free Tyrode solution [21] at 37 °C (3–5 min), at a rate of 13 mL/min, and pre-digested by perfusion with low-calcium (150 μM) Tyrode solution supplemented with 220–280 U/mg of low-trypsin collagenase type 2 (Worthington Biochemical, Toronto, ON, Canada) for less than 15 min.
Once removed from the Langendorf perfusion apparatus, the heart septum and left ventricle were cut and gently shaken for 3 min in a 50/50 solution (digestion sln/low-calcium Tyrode solution) to disperse the isolated cells. The supernatant of the cell solution was filtered, and cells were left to settle in a 15 mL conical tube. The procedure was repeated 4 times, and cells were divided into fractions. Cardiomyocyte pellets from each fraction were washed with low-calcium Tyrode solution. For the final washing, supernatant solution was removed and replaced by standard Kraftbrühe (KB) solution [21], and the cells were kept at 4 °C.
INa and ITo were recorded from freshly isolated left ventricular cardiomyocytes and TSA201 cells after 48 h of transfection at room temperature. Electrical currents were recorded using the patch-clamp technique in whole-cell configuration via an Axopatch 200B amplifier (Molecular Devices, Sunnyvale, CA, USA). Cardiomyocytes and TSA201 cells were pre-incubated with 2Nal during 15 min and continuously perfused during recordings. In preliminary experiments, we measured the onset of the block by 2Nal by initially superfusing with control solution and subsequently washing in 2Nal solution. Recordings were acquired at 10 kHz and filtered to 5 kHz (lowpass Bessel filter). Whole-cell capacitance and series resistance compensation (85%) were optimized to reduce the capacitive artifact and minimize voltage error. Analysis of the recordings was performed using the Clampex 10.7 analysis software.
Extracellular solution for ITo recordings in cardiomyocytes contained (in mM) 126 NaCl, 5.4 KCl, 1 MgCl2, 20 HEPES, 2 CaCl2, and 11 glucose. The pH and osmolarity were adjusted to 7.4 and 295–300 mOsm, respectively, using NaOH and sucrose. Pipette solution contained (in mM) 90 K-aspartate, 30 KCl, 1 MgCl2, 20 HEPES, 5 NaCl, 5 MgATP, 5.5 Glucose. The pH was adjusted with KOH to 7.3 and osmolarity to 295–300 mOsm. For ITo recordings in TSA201 cells, extracellular solution contained 130 NaCl, 5 KCl, 1 MgCl2, 2.8 Na-acetate, 10 HEPES, 1.8 CaCl2, and 10 glucose. […]

With apelin as the molecule, how does the “effect on ITo and IKsus” value [1] read?
The value was “no effects”.

What about the “effect on ultra-rapid potassium current” value [2] of the same molecule?
The value was “blocks the ultra-rapid potassium current”.

And the “cardiac inotropic effect” value (heart)?
The value was “strong positive cardiac inotropic effects”.

And the “vasodilation” value (artery)?
The value was “triggers arterial vasodilation”.

What about the “effect on action potential duration” value [3] of the same molecule?
The value was “reduces action potential duration (APD)”.

And the “effect on large conductance calcium-activated K+ channels” value [4]?
Its value is “inhibiting large conductance calcium-activated K^+ channels”.

And the “effect on cardiac sodium current INa” value [5]?
Its value is “increase in INa; also recorded: modulate cardiac sodium current (INa) gating and enhance its amplitude”.

For “apelin-36: predominant apelin isoform identified in vivo (LVQPRGSRNGPGPWQGGRRKFRRQRPRLSHKGPMPF; Apelin-36; UniProt Q9ULZ1 42-77, looked up)”, which “susceptibility to proteolysis” value [6] is on record?
The value was “highly susceptible to proteolysis”.

Which “Maximum block of ITo,peak” value ([7]; peak component, Gmax ratio, holding −80 mV, 500 ms steps, mean ± SEM) does the source give for CSCC[C@H](NC(=O)[C@@H]1CCCN1C(=O)CNC(=O)[C@H](CCCCN)NC(=O)[C@H](Cc1c[nH]cn1)NC(=O)[C@H](CO)NC(=O)[C@H](CC(C)C)NC(=O)[C@H](CCCNC(=N)N)NC(=O)[C@@H]1CCCN1C(=O)[C@H](CCCNC(=N)N)NC(=O)[C@@H](N)CCC(N)=O)C(=O)N1CCC[C@H]1C(=O)N[C@@H](Cc1ccc2ccccc2c1)C(=O)O [2Nal] here?
Its value is 34.2 ± 5.6%.

What about the IC50 ([7]; peak component, read-out: IC50 (half-maximal blocking concentration) for ITo,peak) of the same molecule?
Its IC50 is 300 ± 100 pM.

What about the “Maximum block of ITo,sus” value ([7]; sustained component, Gmax ratio, holding −80 mV, 500 ms steps, mean ± SEM) of the same molecule?
Its value is 47 ± 9.2%.

What about the IC50 ([7]; sustained component, read-out: IC50 (half-maximal blocking concentration) for ITo,sus) of the same molecule?
The IC50 was 24 ± 10 pM.
